“Also recorded” adds a separate entry of the source.
Legend:
[1] = tested on: choroidal neovascularization (CNV) at Bruch's membrane rupture sites; experiment: Mouse model of laser-induced choroidal neovascularization (rupture of Bruch's membrane), CNV area on choroidal flat mounts; type: in vivo, C57BL/6J mice; conditions: for amount of established CNV on day 14 vs vehicle and day 7 baseline (regression): single periocular injection at day 7; for amount of CNV on day 14 vs vehicle (suppression): single periocular injection at time of rupture
[2] = tested on: retinal neovascularization; experiment: Oxygen-induced ischemic retinopathy, retinal neovascularization; type: in vivo, neonatal C57BL/6 mice; conditions: 100 μg CGC-11144, 1 mg CGC-11047, 750 μg CGC-11093; for amount of retinal neovascularization at P20 vs vehicle (regression): daily periocular injections P17 to P20; for amount of retinal neovascularization at P17 vs vehicle (suppression): periocular injection at P12
Experimental: Ischemic retinopathy can be produced in neonatal C57BL/6 mice as described (Smith, L. E et al., Invest. Opthalmol. Vis. Sci. 35: 101-111 (1994)) and serves as a model for retinopathy of prematurity (ROP). Post-natal day 7 (P7) mice and their mothers were placed in an airtight incubator and exposed to an atmosphere of 75±3% oxygen for 5 days. Incubator temperature was maintained at 23±2° C. and oxygen was continuously monitored with a PROOX model 110 oxygen controller (Reming Bioinstruments Co., Redfield, N.Y.). At post-natal day 12, mice were placed back in room air and were given a periocular injection of 3 μl containing 100 μg of CGC-11144 (n=4), 1 mg of CGC-11047 (n=4), 750 μg of CGC-11093 (n=4) or vehicle. On post-natal day 17 (P17) the treated and control mice were euthanized and the amount of retinal neovascularization was measured.
For measurement of retinal neovascularization, eyes were removed and fixed in 2% paraformaldehyde in phosphate buffered saline (PBS) for one hour and rinsed twice in 25% sucrose in PBS. Specimens were incubated in 25% sucrose in PBS overnight and embedded in OCT compound (Miles Diagnostics, Elkhart, Ind.),). 10 μm frozen sections were post-fixed for 15 minutes in 0.5% glutaraldehyde in PBS and washed in PBS. Sections were also histochemically stained with biotinylated Griffonia simplicifolia lectin B4 (GSA, Vector Laboratories, Burlingame, Calif.), which selectively binds to vascular cells. Slides were incubated in methanol/H2O2 for 10 minutes at 4° C., washed with 0.05 M Tris-buffered saline, pH 7.6 (TBS), and incubated for 30 minutes in 10% normal porcine serum. Slides were incubated 2 hours at room temperature with biotinylated GSA and after rinsing with 0.05M TBS, they were incubated with avidin coupled to peroxidase (Vector Laboratories, Burlingame, Calif.) for 30 minutes at room temperature. After being washed for 10 minutes with 0.05M TBS, slides were incubated with diaminobenzidine (Research Genetics, Huntsville, Ala.) to give a brown reaction product.
To perform quantitative assessments, 10 μm frozen serial sections were cut from the iris root on one side of the eye to the iris root on the opposite side of the eye and every tenth section was stained with GSA. Retinas were examined with an Axioskop microscope and images were digitized using a 3 CCD color video camera and a frame grabber. Image-Pro Plus software was used to delineate GSA-stained vascular cells above the internal limiting membrane and the total area of staining was measured.
To investigate the effect of these agents on regression of retinal neovascularization, ischemic retinopathy was induced and left untreated until P17, when the baseline amount of retinal neovascularization was measured in one group of mice. From post-natal days 17 to 20 (P17 to P20) the remainder of the mice were given daily periocular injections of 100 μg of CGC-11144 (n=4), 1 mg of CGC-11047 (n=4), 750 μg of CGC-11093 (n=4) or vehicle. On P20 the mice were euthanized and the amount of retinal neovascularization in the treated and control mice was measured as described above.

[3] = tested on: subretinal neovascularization; experiment: Rhodopsin/VEGF transgenic mice, subretinal neovascularization; type: in vivo, rhodopsin/VEGF transgenic mice (V6 mice); conditions: periocular injection at P7, measured P21; 100 μg CGC-11144, 1 mg CGC-11047, 750 μg CGC-11093
From the text: Transgenic mice (V6 mice) in which the rhodopsin promoter drives expression of VEGF165 in photoreceptors have onset of VEGF expression at post-natal day 7 (P7) and soon after begin to develop neovascularization originating from the deep capillary bed that grows through the photoreceptor layer into the subretinal space. (Okamoto N et al., Amer. J. Pathol. 151: 281-91 (1997); Tobe T et al., Invest. Ophthalmol. Vis. Sci. 39: 180-188 (1998)). Hemizygous transgene positive mice were given a periocular injection of 100 μg of CGC-11144 (n=3), 1 mg of CGC-11047 (n=3), 750 μg of CGC-11093 (n=3) or vehicle (n=7) at P7. At post-natal day 21 (P21), mice were euthanized and the amount of subretinal neovascularization was quantified as previously described (Tobe, ibid.). Briefly, mice were anesthetized, perfused with fluorescein-labeled dextran, and the number of neovascular lesions on the outer surface of the retina and their total area were measured on retinal flat mounts by image analysis as described in Example 1.

[4] = 2 mg CGC-11047, 1.5 mg CGC-11093
[5] = 200 μg CGC-11144, 2 mg CGC-11047, 1.5 mg CGC-11093
[6] = single periocular injection one week prior to rupture, 200 μg CGC-11144, 2 mg CGC-11047, 1.5 mg CGC-11093
[7] = single periocular injection three weeks before laser, 2 mg CGC-11047, 1.5 mg CGC-11093
[8] = single periocular injection two weeks prior to rupture, 200 μg CGC-11144, 2 mg CGC-11047, 1.5 mg CGC-11093

Structure (SMILES)	area of CNV vs day 7 baseline and vehicle fellow eyes (regression) ([1]; daily periocular injections days 7 to 14, 200 μg CGC-11144, 100 μg DFMO, or both)	amount of established CNV on day 14 vs vehicle and day 7 baseline (regression) [1, 4]	amount of CNV on day 14 vs vehicle (suppression) [1, 5]	amount of CNV vs vehicle (duration of effect) [1, 6]	amount of CNV vs vehicle (duration of effect) [1, 7]	amount of CNV vs vehicle (duration of effect) [1, 8]	amount of retinal neovascularization at P20 vs vehicle (regression) [2]	amount of retinal neovascularization at P17 vs vehicle (suppression) [2]	subretinal neovascularization vs vehicle [3]
NCCCC(N)(C(=O)O)C(F)F (racemic) [DFMO, D,L-α-difluoromethyl-omithine, reference compound]	significant reduction in the area of CNV; also recorded: significantly less								
CCNCCCNC/C=C\CNCCCNCC [CGC-11047]		less CNV than those treated with vehicle and less than the baseline amount of CNV	significantly reduced the amount of CNV	significant reduction of the amount of CNV	no significant effect	significantly smaller amounts of CNV	significantly less neovascularization	significantly less	significantly less subretinal neovascularization
CCNCCCCNCC1CC1CNCCCCNCC (centres unmarked) [CGC-11093]		less CNV than those treated with vehicle and less than the baseline amount of CNV	significantly reduced the amount of CNV	significant reduction of the amount of CNV	no significant effect	significantly smaller amounts of CNV	significantly less neovascularization	significantly less	significantly less subretinal neovascularization
